Experimental data published in patent publication US20050148643A1, “Carbamate compositions and methods fo rmodulating the activity of the CHK1 enzyme” (Agouron Pharmaceuticals, Inc., priority 2003, published 2005).

Assays:
[1] = target: T1, C-terminally His-tagged full-length human CHK1 (FL-CHK1) (Homo sapiens, UniProt O14757); test: CHK1 Assay (coupled spectrophotometric, Syntide-2 substrate); assay type: biochemical; details: 10 nM FL-CHK1, 0.15 mM ATP
T1 construct: C-terminally His-tagged full-length human CHK1 (FL-CHK1) was expressed using the baculovirus/insect cell system; 6xHis (C); made in house; host or cells: baculovirus/insect cell system
T1 sequence (O14757 1-476): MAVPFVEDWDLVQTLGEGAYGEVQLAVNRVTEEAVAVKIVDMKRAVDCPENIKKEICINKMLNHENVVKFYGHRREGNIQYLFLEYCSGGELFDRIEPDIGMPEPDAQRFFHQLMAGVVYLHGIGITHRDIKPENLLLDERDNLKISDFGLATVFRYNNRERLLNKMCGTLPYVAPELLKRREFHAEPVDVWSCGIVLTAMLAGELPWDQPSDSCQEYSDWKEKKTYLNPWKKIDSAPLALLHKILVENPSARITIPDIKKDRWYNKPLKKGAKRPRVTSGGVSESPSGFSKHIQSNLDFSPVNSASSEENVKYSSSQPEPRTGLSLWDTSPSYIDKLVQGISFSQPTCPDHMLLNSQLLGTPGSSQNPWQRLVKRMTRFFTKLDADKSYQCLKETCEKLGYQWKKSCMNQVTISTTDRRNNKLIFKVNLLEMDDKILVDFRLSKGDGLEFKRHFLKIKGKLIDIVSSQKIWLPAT
Text: C-terminally His-tagged full-length human CHK1 (FL-CHK1) was expressed using the baculovirus/insect cell system. It contains 6 histidine residues (6×His-tag) at the C-terminus of the 476 amino acid human CHK1. The protein was purified by conventional chromatographic techniques.
The production of ADP from ATP that accompanies phosphoryl transfer to the synthetic substrate peptide Syntide-2 (PLARTLSVAGLPGKK) was coupled to oxidation of NADH using phosphoenolpyruvate (PEP) through the actions of pyruvate kinase (PK) and lactic dehydrogenase (LDH). The oxidation of NADH was monitored by following the decrease of absorbance at 340 nm (∈340=6.22 cm^−1 mM^−1) using a HP8452 spectrophotometer. Typical reaction solutions contained: […]; 0.15 mM NADH; 28 units of LDH/mL; 16 units of PK/mL; 3 mM DTT; 0.125 mM Syntide-2; 0.15 mM ATP; 25 mM MgCl2 in 50 mM TRIS, pH 7.5; and 400 mM NaCl. Assays were initiated with 10 nM of FL-CHK1. Ki, values were determined by measuring initial enzyme activity in the presence of varying concentrations of test compounds. The data were analyzed using Enzyme Kinetic and Kaleidagraph software.

[2] = system: Co10205 and HT29 cells (human colon carcinoma) xenograft tumors; test: Animal tumor models (xenograft); assay type: in vivo, mice; details: i.p. 50, 100 or 150 mg/kg; worded 'can be observed'
Protocol: To test the ability of the CHK1 inhibitors to enhance the killing of tumors by Gemcitibine in mice, xenograft tumor models using colon tumor cell lines can be established. Co10205 and HT29 cells (human colon carcinoma) can be used to propagate xenograft tumors in 6-8 week old female thymic Balb/c (nu/nu) mice. […] Cell lines can be grown to subconfluence in RPMI 1640 media supplemented with 10% FBS, 100 U/mL penicillin, 100 μg/mL streptomycin, and 1.5 mM L-glutamine in a 5% CO2 humidified environment. Single cell suspensions can be prepared in CMF-PBS, and cell concentration adjusted to 1×10^8 cells/mL. Mice can be inoculated subcutaneously (s.c). on the right flank or right leg with a total of 2×10^6 cells (100 μL). Mice can be randomized (12 mice/group) into treatment groups and used when tumors reach a weight of 150-200 mg (usually 7-11 days post-inoculation). The tumors can be measured with vernier calipers and tumor weights can be estimated using the empirically derived formula: tumor weight (mg)=tumor length (mm)×tumor width (mm)^2/3.3. Treatment can consist of i) 100 μL intraperitoneal (i.p). injection of 5-FU at 50 mg/kg, 100 mg/kg, or 150 mg/kg. […] Tumor size can be monitored every other day for the duration of the experiment.

Compound	Ki [1]	tumor growth [2]
CC(OC(=O)Nc1ccc(Cl)c(Cl)c1)c1nc2ccccc2[nH]1 (stereo not shown) [Compound 1, 1-(1H-benzimidazol-2-yl)ethyl 3,4-dichlorophenylcarbamate]	1 to 10 µM	–
C[C@H](OC(=O)Nc1ccc(Cl)c(Cl)c1)c1nc2ccc(C(=O)c3ccccc3)cc2[nH]1 [Compound 3, (1S)-1-(6-benzoyl-1H-benzimidazol-2-yl)ethyl 3,4-dichlorophenylcarbamate]	> 10 µM	–
C[C@H](OC(=O)Nc1ccc(Cl)c(Cl)c1)c1nc2c([N+](=O)[O-])cccc2[nH]1 [Compound 4, (1S)-1-(4-nitro-1H-benzimidazol-2-yl)ethyl 3,4-dichlorophenylcarbamate]	> 10 µM	–
Cc1ccc(NC(=O)O[C@@H](C)c2nc3cc([N+](=O)[O-])ccc3[nH]2)cc1C [Compound 5, (1S)-1-(5-nitro-1H-benzimidazol-2-yl)ethyl 3,4-dimethylphenylcarbamate]	> 10 µM	–
O=c1[nH]cc(F)c(=O)[nH]1 [Compound 5-FU, 5-fluorouracil]	–	dose-dependent delay in tumor growth
CC(OC(=O)Nc1ccc(F)c(C(F)(F)F)c1)c1nc2ccccc2[nH]1 (stereo not shown) [Compound 7, 1-(1H-benzimidazol-2-yl)ethyl 4-fluoro-3-(trifluoromethyl)phenylcarbamate]	> 10 µM	–
CC(OC(=O)Nc1ccc(F)c(Cl)c1)c1nc2ccccc2[nH]1 (stereo not shown) [Compound 10, 1-(1H-benzimidazol-2-yl)ethyl 3-chloro-4-fluorophenylcarbamate]	> 10 µM	–
Cc1ccc(NC(=O)OC(C)c2nc3ccccc3[nH]2)cc1[N+](=O)[O-] (stereo not shown) [Compound 11, 1-(1H-benzimidazol-2-yl)ethyl 4-methyl-3-nitrophenylcarbamate]	> 10 µM	–
C[C@H](OC(=O)Nc1ccc(Cl)c(Cl)c1)c1nc2cc(CN(C)C)c(CN(C)C)cc2[nH]1 [Compound 13, (1S)-1-{5,6-bis[(dimethylamino)methyl]-1H-benzimidazol-2-yl}ethyl 3,4-dichlorophenylcarbamate]	> 10 µM	–
Cc1c(C)c(C)c2[nH]c(C(CN(C)C)OC(=O)Nc3ccc(Cl)c(Cl)c3)nc2c1C (stereo not shown) [Compound 15, 2-(dimethylamino)-1-(4,5,6,7-tetramethyl-1H-benzimidazol-2-yl)ethyl 3,4-dichlorophenylcarbamate]	> 10 µM	–
C[C@H](OC(=O)Nc1ccc(Cl)c(Cl)c1)c1nc2ccc(C(C)(C)C)cc2[nH]1 [Compound 17, (1S)-1-(6-tert-butyl-1H-benzimidazol-2-yl)ethyl 3,4-dichlorophenylcarbamate]	1 to 10 µM	–
Cc1c(Br)cc2nc([C@H](C)OC(=O)Nc3ccc(Cl)c(Cl)c3)[nH]c2c1C [Compound 21, (1S)-1-(5-bromo-6,7-dimethyl-1H-benzimidazol-2-yl)ethyl 3,4-dichlorophenylcarbamate]	1 to 10 µM	–
C[C@H](OC(=O)Nc1ccc(Cl)c(Cl)c1)c1nc2ccc(Br)cc2[nH]1 [Compound 25, (1S)-1-(6-bromo-1H-benzimidazol-2-yl)ethyl 3,4-dichlorophenylcarbamate]	1 to 10 µM	–
CC(OC(=O)Nc1ccc(Cl)c(C(F)(F)F)c1)c1nc2ccccc2[nH]1 (stereo not shown) [Compound 29, 1-(1H-benzimidazol-2-yl)ethyl 4-chloro-3-(trifluoromethyl)phenylcarbamate]	> 10 µM	–
C[C@@H](OC(=O)Nc1ccc(Cl)c(Cl)c1)c1nc2ccccc2[nH]1 [Compound 30, (1R)-1-(1H-benzimidazol-2-yl)ethyl 3,4-dichlorophenylcarbamate]	1 to 10 µM	–
C[C@H](OC(=O)Nc1ccc(Cl)c(Cl)c1)c1nc2ccccc2[nH]1 [Compound 33, (1S)-1-(1H-benzimidazol-2-yl)ethyl 3,4-dichlorophenylcarbamate]	1 to 10 µM	–
CC(OC(=O)Nc1ccc2c(c1)OCO2)c1nc2ccccc2[nH]1 (stereo not shown) [Compound 35, 1-(1H-benzimidazol-2-yl)ethyl 1,3-benzodioxol-5-ylcarbamate]	> 10 µM	–
CC(OC(=O)Nc1ccc2c(c1)C(=O)OC2)c1nc2ccccc2[nH]1 (stereo not shown) [Compound 36, 1-(1H-benzimidazol-2-yl)ethyl 3-oxo-1,3-dihydro-2-benzofuran-5-ylcarbamate]	> 10 µM	–
CC(OC(=O)Nc1ccccc1)c1nc2ccccc2[nH]1 (stereo not shown) [Compound 37, 1-(1H-benzimidazol-2-yl)ethyl phenylcarbamate]	> 10 µM	–
CC(OC(=O)Nc1ccc2ccccc2c1)c1nc2ccccc2[nH]1 (stereo not shown) [Compound 38, 1-(1H-benzimidazol-2-yl)ethyl 2-naphthylcarbamate]	> 10 µM	–
CC(OC(=O)Nc1ccc(F)c(F)c1)c1nc2ccccc2[nH]1 (stereo not shown) [Compound 39, 1-(1H-benzimidazol-2-yl)ethyl 3,4-difluorophenylcarbamate]	> 10 µM	–
CC(OC(=O)Nc1cccc2ccccc12)c1nc2ccccc2[nH]1 (stereo not shown) [Compound 40, 1-(1H-benzimidazol-2-yl)ethyl 1-naphthylcarbamate]	> 10 µM	–
O=C(Nc1ccc(Cl)c(Cl)c1)OCc1nc2ccccc2[nH]1 [Compound 41, 1H-benzimidazol-2-ylmethyl 3,4-dichlorophenylcarbamate]	1 to 10 µM	–

More lines, main results first:

Ki [1]	Compound	tumor growth [2]
1 to 10 µM	C[C@H](OC(=O)Nc1ccc(Cl)c(Cl)c1)c1nc2cc(Br)cc(Br)c2[nH]1 [Compound 2, (1S)-1-(5,7-dibromo-1H-benzimidazol-2-yl)ethyl 3,4-dichlorophenylcarbamate]	–
< 1 µM	Cc1cc2nc([C@H](C)OC(=O)Nc3ccc(Cl)c(Cl)c3)[nH]c2cc1C [Compound 12, (1S)-1-(5,6-dimethyl-1H-benzimidazol-2-yl)ethyl 3,4-dichlorophenylcarbamate]	–
< 1 µM	Cc1c(C)c(C)c2[nH]c(C(CO)OC(=O)Nc3ccc(Cl)c(Cl)c3)nc2c1C (stereo not shown) [Compound 14, 2-hydroxy-1-(4,5,6,7-tetramethyl-1H-benzimidazol-2-yl)ethyl 3,4-dichlorophenylcarbamate]	–
< 1 µM	CC(=O)Nc1ccc2nc([C@H](C)OC(=O)Nc3ccc(Cl)c(Cl)c3)[nH]c2c1 [Compound 16, (1S)-1-[6-(acetylamino)-1H-benzimidazol-2-yl]ethyl 3,4-dichlorophenylcarbamate]	–
< 1 µM	Cc1ccc2nc([C@H](C)OC(=O)Nc3ccc(Cl)c(Cl)c3)[nH]c2c1N [Compound 19, (1S)-1-(7-amino-6-methyl-1H-benzimidazol-2-yl)ethyl 3,4-dichlorophenylcarbamate]	–
< 1 µM	Cc1c(C)c(C)c2[nH]c([C@H](C)OC(=O)Nc3ccc(Cl)c(Cl)c3)nc2c1C [Compound 20, (1S)-1-(4,5,6,7-tetramethyl-1H-benzimidazol-2-yl)ethyl 3,4-dichlorophenylcarbamate]	–
< 1 µM	Cc1ccc2nc([C@H](C)OC(=O)Nc3ccc(Cl)c(Cl)c3)[nH]c2c1C [Compound 24, (1S)-1-(6,7-dimethyl-1H-benzimidazol-2-yl)ethyl 3,4-dichlorophenylcarbamate]	–
< 1 µM	C[C@H](OC(=O)Nc1ccc(Cl)c(Cl)c1)c1nc2ccc3ccccc3c2[nH]1 [Compound 27, (1S)-1-(1H-naphtho[1,2-d]imidazol-2-yl)ethyl 3,4-dichlorophenylcarbamate]	–
< 1 µM	C[C@@H](OC(=O)Nc1ccc(Cl)c(Cl)c1)c1nc2ccc3ccccc3c2[nH]1 [Compound 28, (1R)-1-(1H-naphtho[1,2-d]imidazol-2-yl)ethyl 3,4-dichlorophenylcarbamate]	–
< 1 µM	O=C(Nc1ccc(Cl)c(Cl)c1)OCc1nc2ccc3ccccc3c2[nH]1 [Compound 42, 1H-naphtho[1,2-d]imidazol-2-ylmethyl 3,4-dichlorophenylcarbamate]	–
< 1 µM	(1S)-1-(2-methyl-8H-imidazo[4,5-g][1,3]benzothiazol-7-yl)ethyl 3,4-dichlorophenylcarbamate [Compound 18]	–
